Experimental data as given in patent US10238631B2, “Sesquiterpene derivatives and their use in inflammation or cancer treatment” (Academia Sinica, priority 2014, dated 2019).
pIC50: −log10 of the molar value.

What was measured:
[1] = test system: RAW264.7 (normal macrophage); assay: MTT cell viability assay, RAW264.7 macrophages; type: cell-based, mouse; settings: Mus musculus, RAW264.7, 24 h
Procedure, shortened: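 RAW264.7 macrophages (2×10^5 cells/well) pretreated with compounds 1 h, then incubated 24 h with or without 100 ng/μL LPS. Viability by MTT colorimetric assay run in parallel with Griess nitrite measurement.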

[2] = test system: A2058 (BRAF mutation); assay: MTT cell viability assay, A2058 melanoma; type: cell-based, human; settings: Homo sapiens, A2058, 24 h
Procedure, shortened: (§1)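 Overnight-seeded cells (2×10^3–1×10^4/well) → compound 24–72 h → MTT, OD570; % viable = treated/vehicle ×100, vehicle 0.5% DMSO.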

[3] = test system: melanoma cell lines B16-F10, MeWo, A375, A2058, HTB-68; assay: MTT cell viability assay, all melanoma cell lines; type: cell-based; settings: 24 h, read-out: IC50 values over all types of melanoma cell lines
Protocol: Normal or cancer cells (2×10^3 to 1×10^4 cells/well) were seeded in 96-well plate for overnight and treated with different compounds for 24 h to 72 h. Cells growth were determined by MTT-based colorimetric assays according to. Viability of the test cells treated with vehicle (0.5% DMSO) only was defined as 100% viable. Survival of cells after treatment with DETDs was calculated using the following formula: viable cell number (%)=OD570 (treated cell culture)/OD570 (vehicle control)×100.
Several genes are involved in melanoma development and pathology; specifically, mutation in V-raf murine sarcoma viral oncogene homolog B1 (B-RAF) occurs approximately 50-60% and in neuroblastoma RAS viral oncogene homolog (N-RAS) occurs about 30% of malignant melanomas. A spectrum of wild-type or mutated melanoma cell lines including B16-F10, MeWo, A375, A2058, HTB-68, and melanocyte were used to study anti-melanoma cell proliferation activity of parental phytocompound DET and newly synthesized DETDs.

[4] = test system: B16-F10 (NRAS mutation); assay: MTT cell viability assay, B16-F10 melanoma; type: cell-based; settings: Mus musculus, B16-F10, 24 h, 24 h, read-out: IC50 on cell viability, B16-F10 (NRAS mutation)
Procedure, shortened: as §1

[5] = test system: M10 normal mammary epithelial cells; assay: MTT cell viability assay, M10 normal cells; type: cell-based, human; settings: Homo sapiens, Epithelial cell, 24 h
Procedure, shortened: (§2)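 Seed 2×10^3 to 1×10^4 cells/well, overnight. Treat with compounds 24 h to 72 h. Add MTT, read OD570. Express survival relative to 0.5% DMSO vehicle (100%).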

[6] = test system: MCF-7 (ER+, Her2−) human breast cancer cells; assay: MTT cell viability assay, MCF-7 cells; type: cell-based; settings: MCF7, 24 h, read-out: IC50 on cell viability, MCF-7 (ER+, Her2−)
Procedure, shortened: as §2

[7] = test system: MeWo (No NRAS or BRAF mutation); assay: MTT cell viability assay, MeWo melanoma; type: cell-based, human; settings: Homo sapiens, MeWo, 24 h
Procedure, shortened: as §1

[8] = test system: HTB-68 (NRAS mutation); assay: MTT cell viability assay, HTB-68 melanoma; type: cell-based, human; settings: Homo sapiens, 24 h
Procedure, shortened: as §1

[9] = test system: TS/A (ER+, Her2−) murine mammary cancer cells; assay: MTT cell viability assay, TS/A cells; type: cell-based; settings: Mus musculus, 24 h, read-out: IC50 on cell viability, TS/A (ER+, Her2−)
Procedure, shortened: as §2

[10] = test system: LPS-induced nitric oxide (NO) production in RAW 264.7 cells; assay: Nitric oxide production in LPS-stimulated macrophages (Griess); type: cell-based, mouse; settings: Mus musculus; LPS-stimulated RAW264.7, nitrite 24 h after LPS
Procedure, shortened: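 RAW 264.7 macrophages (2×10^5 cells/well) were pretreated with compound for 1 h and then stimulated with 100 ng/μL LPS for 24 h. NO was measured as nitrite in the medium by the Griess reaction. Viability was checked in parallel by MTT.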

[11] = test system: A375 (BRAF mutation); assay: MTT cell viability assay, A375 melanoma; type: cell-based, human; settings: Homo sapiens, A-375, 24 h, 24 h, MTT; read-out: IC50 on cell viability, A375 (BRAF mutation)
Procedure, shortened: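 A375 cells were seeded at 2×10^3 to 1×10^4 per well overnight and then exposed to compounds for 24 h to 72 h. Viability was measured by MTT absorbance at OD570 relative to 0.5% DMSO vehicle (100%), and IC50 was derived from it. Combination with PLX4032 was scored by combination index.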

[12] = test system: Melanocyte (Normal cells); assay: MTT cell viability assay, normal melanocytes; type: cell-based, human; settings: Homo sapiens, Melanocyte, 24 h
Procedure, shortened: as §1

[13] = test system: MDA-MB-231 (ER−, PR−, Her2−) human breast cancer cells; assay: MTT cell viability assay, MDA-MB-231 cells; type: cell-based; settings: Homo sapiens, MDA-MB-231, 24 h, read-out: IC50 on cell viability, MDA-MB-231 (ER−, PR−, Her2−)
Procedure, shortened: as §2

| Structure (SMILES) | pIC50 [1] | pIC50 [2] | pIC50 [3] | pIC50 [4] | pIC50 [5] | pIC50 [6] | pIC50 [7] | pIC50 [8] | pIC50 [9] | pIC50 [10] | pIC50 [11] | pIC50 [12] | pIC50 [13] |
| --- | --- | --- | --- | --- | --- | --- | --- | --- | --- | --- | --- | --- | --- |
| C=C1C(=O)OC2CC3=C[C@@H](C/C(C)=C/C(OC(=O)[C@@H](C)c4ccc5cc(OC)ccc5c4)[C@H]12)OC3=O (stereo partly drawn) [DETD-53] | < 5.00 | 5.26 | 5.00 to 5.80 | 5.28 | 5.32 | 5.39 | 5.22 | 5.30 | 5.39 | 5.46 | 5.55 | < 5.00 | 5.42 |
| C=C1C(=O)OC2CC3=C[C@@H](C/C(C)=C/[C@@H](OC(=O)C(C)(OC)c4ccc5ccccc5c4)[C@H]12)OC3=O (stereo partly drawn) [DETD-55] | < 5.00 | 5.21 | 5.00 to 5.80 | 5.32 | < 5.12 | < 5.12 | 5.05 | 5.28 | 5.55 | 5.54 | 5.59 | < 5.00 | 5.39 |
| C=C1C(=O)OC2CC3=C[C@@H](C/C(C)=C/C(OC(=O)[C@H](C)c4ccc5cc(OC)ccc5c4)[C@H]12)OC3=O (stereo partly drawn) [DETD-54] | < 5.00 | 5.18 | 5.00 to 5.80 | 5.18 | < 5.12 | < 5.12 | 5.10 | 5.15 | 5.51 | < 5.00 | 5.47 | < 5.00 | 5.31 |
| C=C1C(=O)OC2CC3=C[C@@H](C/C(C)=C/C(OC(=O)Cc4cccc5cc(OC)ccc45)[C@H]12)OC3=O (stereo partly drawn) [DETD-45] | < 5.00 | 5.44 | 5.00 to 5.80 | 5.35 | 5.33 | 5.51 | 5.35 | 5.46 | 5.70 | 5.55 | 5.77 | < 5.00 | 5.51 |
| C=C1C(=O)OC2CC3=C[C@@H](C/C(C)=C/[C@@H](OC(=O)/C=C/c4ccc(OCC)cc4)[C@H]12)OC3=O (stereo partly drawn) [DETD-60] | < 5.00 | 5.39 | 5.00 to 5.80 | 5.31 | 5.40 | 5.48 | 5.32 | 5.31 | 5.68 | 5.52 | 5.70 | < 5.00 | 5.57 |
| C=C1C(=O)OC2CC3=C[C@@H](C/C(C)=C/[C@@H](OC(=O)/C=C/c4ccc5c(c4)OCO5)[C@H]12)OC3=O (stereo partly drawn) [DETD-61] | < 5.00 | 5.28 | 5.00 to 5.80 | 5.22 | 5.33 | 5.44 | 5.18 | 5.26 | 5.60 | 5.51 | 5.59 | < 5.00 | 5.47 |
